Assay results taken from patent publication US8895569B2, “Carbocyclic nucleosides and their pharmaceutical use and compositions” (Cellceutix Corporation, priority 2012, dated 2014).

What was measured:
[1] = Oral bioavailability and disposition of Prurisol; settings: in vivo
[2] = system: Psoriasis susceptibility related RNA Gene Induced by Stress (PRINS); test: PRINS expression in human psoriatic tissue transplants on SCID mice; assay type: in vivo, SCID mice bearing human psoriatic tissue; settings: for PRINS: control 49
Method: (§1) In order to examine efficacy of the (−) cis-[4-[2-amino-6-(cyclopropylamino)-9H-purin-9-yl]-2-cyclopentene-1-hydroxymethyl acetate in mice, male and female SCID mice (24 to 28 gms) 6 to 8 weeks old were purchased from Charles River Laboratory (Wilmington, Mass.). The animals were kept in standard rodent cages with isolator tops at 18-26° C., and a relative humidity of 30-70% on a 12 hour light/12 hour dark cycle. Mice were given rodent chow and water ad libitum. […] Suitable animals were selected for the assigned study.
(§2) Mice were subjected to total body irradiation to mildly suppress immune system at 120 rads per animal in a Gamma Cell Radiator. Mice were identified by ear punching.
(§3) 24 Hours after the TBI, a 5 mm×5 mm cut of the human psoriatic tissue was transplanted on the skin of the mice, under ketamine/xylazine anesthesia. The tissues were adherent by using a skin cement. All animals survived the anesthesia and the surgery for the experiment. The complete fusion of the tissues was achieved by day 27. During treatments, mice were observed daily for any adverse affects. Mice body weights were taken prior to treatment and every other day during the post treatment. If an animal became unwell, any treatment of that animal was suspended. If there was no recovery, the animal was sacrificed. […] Mice transplant area size measurements were taken prior to treatment and every other day during and post treatment. The same scientist was responsible for taking the measurements throughout the study.
(§4) Groups of 5 male mice and 5 female mice bearing psoriatic tissues were treated with either (−) cis-[4-[2-amino-6-(cyclopropylamino)-9H-purin-9-yl]-2-cyclopentene-1-hydroxymethyl acetate (Prurisol) alone or methotrexate (MTX) according to the schedule below. Another group of mice remained untreated to serve as controls.
(§5) Prurisol was administered orally (PO) to the mice, along with the topical application at 8 hour intervals on the effected area. […] In psoriasis, anti-apoptotic protein G1P3 is over expressed, which is regulated by the non-coding RNA. Psoriasis susceptibility related RNA Gene Induced by Stress (PRINS) was examined in control animal's transplants and treated ones (the expression in psoriatic plaques will be 10 times higher), and results from these studies are shown below.

IL-20 = IL-20 in tissue measured by ELISA, psoriatic xenograft SCID mice; assay type: in vivo, SCID mice bearing human psoriatic tissue; settings: for IL-20: ELISA, control 178; for reduction of IL-20 concentration in tissue: versus control
Method: as §1, §2, §3, §4
IL-20 was also measured using ELISA technique and data is also shown below.

[3] = Weight changes of treated mice; assay type: in vivo, SCID mice
Method: as §3, §5

Storage stability = assay type: physicochemical; settings: stored at ambient temperature, protected from light
human psoriatic tissue = test: Recovery from psoriasis in SCID mice implanted with human psoriatic tissue; assay type: in vivo; settings: 10 mg, one time per day or BID
Method: as §1, §2
24 Hours after the TBI, a 5 mm×5 mm cut of the human psoriatic tissue was transplanted on the skin of the mice, under ketamine/xylazine anesthesia. The tissues were adherent by using a skin cement. All animals survived the anesthesia and the surgery for the experiment. The complete fusion of the tissues was achieved by day 27. During treatments, mice were observed daily for any adverse affects. Mice body weights were taken prior to treatment and every other day during the post treatment. If an animal became unwell, any treatment of that animal was suspended. If there was no recovery, the animal was sacrificed. […]

[4] = Prurisol 10 mg/kg, MTX 7.5 mg/kg

Row | bioavailability ([1]; oral, read-out: oral bioavailability (% F)) | weight loss ([3]; 5 mg/kg on days 11 to 35 and 20 mg/kg topically) | weight loss due to administration ([3]; orally (PO) along with topical application at 8 hour intervals) | stability (Storage stability) | SMILES | crossing the blood brain barrier [1] | metabolism route [1] | PRINS [2, 4] | PRINS ([2]; Prurisol × 2 (2×10 mg/kg)) | PRINS reduction in comparison to methotrexate ([2]; in vivo) | IL-20 (IL-20; [4]) | IL-20 (IL-20; Prurisol × 2 (2×10 mg/kg)) | reduction of IL-20 concentration in tissue (IL-20) | recovery from psoriasis (skin appearance, FIG. 6) (human psoriatic tissue)
1 | 83% | no weight loss | within acceptable limits | stable | Nc1nc(NC2CC2)c2ncn([C@H]3C=C[C@@H](COC(=O)CO)C3)c2n1 [Prurisol] | capable of crossing the blood brain barrier | metabolized primarily through alcohol dehydrogenase or glucuronyl transferase | 24 | 5 | reduces PRINS significantly | 54 | 18 | 3 fold | recovered from psoriasis
2 | – | – | – | – | CN(Cc1cnc2nc(N)nc(N)c2n1)c1ccc(C(=O)N[C@@H](CCC(=O)O)C(=O)O)cc1 [MTX, methotrexate, reference compound] | – | – | 28 | – | – | 127 | – | 1.4 fold | –
